We go through 29 compounds from patent US20200197418A1, “COMPOUNDS FOR THE TREATMENT OF DISEASES CAUSED BY OXALATE ACCUMULATION” (UNIVERSIDAD DE GRANADA, priority 2017, published 2020).

Assay [1] has as its system Agxt1-KO mouse hepatocyte cultures. The assay can be described thus: Oxalate reduction assay in primary hepatocyte cultures from hyperoxaluric mice, glycolate-loaded. The assay is classed as cell-based. The note with it: for Relative oxalate at 10 μM: compound at 10 μM, Agxt1-/- mouse hepatocytes with 5 mM glycolate, mean ± standard deviation; for EC50: Agxt1-KO mouse hepatocytes, 5 mM glycolate. The method, then:
Isolation and culture of hepatocytes: The isolation of hepatocytes from AGT enzyme-deficient mice was carried out as described in the literature. A total of 3.0×10^5 cells/well were then cultured in 6-well plates in William's E medium supplemented with foetal bovine serum (5%), I-glutamine (2 mM), penicillin (100 U/ml), streptomycin (100 μg/ml), insulin (2.2 mIU/ml) and hydrocortisone (0.3 μg/ml). After 5 h, the medium was switched to serum-free complete William's E medium (Biochrom, Cambridge, UK), and the cells were treated with increasing concentrations of each of the drugs in the presence of 5 mM glycolate. Samples of the culture medium were collected at 24, 48 and 72 h after treatment, to quantify oxalate.
Determination of oxalate: The determination of oxalate excreted into the medium was carried out by assaying in the presence of oxalate oxidase using a commercial kit (Trinity Biotech, Co Wicklow, Ireland), following the manufacturer's indications. GraphPad Prism 5 software was used for the graphical representation of the data as the mean±SD.
The efficacy of reducing oxalate production was measured in primary hepatocyte cultures obtained from hyperoxaluric mice (Agxt1^−/−). Cultures of less than 5 days were used to prevent possible interferences due to cell differentiation. For the short-term increase in the production of oxalate in cells and for obtaining detectable levels in standard enzymatic assays, glycolate was added to the culture medium at a concentration of 5 mM. Firstly, the viability of the hepatocytes treated with increasing concentrations of each drug up to 200 μM in the presence of glycolate was tested in comparative assays with control hepatocytes not treated with a drug and at different times.
Oxalate reduction assays were then carried out. Samples of the culture medium were taken every 24 hours after treatment with each of the compounds under evaluation. In each of these samples was measured the concentration of oxalate excreted into the medium by Agxt1^−/− hepatocytes. The determination of oxalate in the samples was carried out using a colorimetric enzymatic assay based on two consecutive reactions catalysed by the enzymes oxalate oxidase and peroxidase, respectively.

The subject of assay [2] is mice with PH-1 (Agxt1-KO). The settings on record: cited from earlier work.
Where [3] appears, read: Hepatocyte, 24 h after treatment, read-out: EC50 (24 h), reduced production of oxalate.
Where [4] appears, read: Hepatocyte, 48 h after treatment, read-out: EC50 (48 h), reduced production of oxalate.
Setting [5] is: Hepatocyte, 72 h after treatment, read-out: EC50 (72 h), reduced production of oxalate.

The structures appear in SMILES notation. Read-outs that look alike come from different tables or passages of the source. Marks after values point to notes of the source that are not given here.

In the case of `O=C(O)c1cc(-c2ccoc2)ccc1O`, the “Relative oxalate at 10 μM” value in assay [1] is 0.89 ± 0.16.
For the compound `Oc1ccc(-c2ccoc2)cc1O`, the “Relative oxalate at 10 μM” value in assay [1] was 1.02 ± 0.3.
Turning to `O=Cc1ccc(-c2ccc(C(=O)O)c(O)c2)o1`, the “Relative oxalate at 10 μM” value in assay [1] was 0.88 ± 0.18.
For the compound `COc1cc(-c2ccc(C=O)o2)ccc1C(=O)O`, the “Relative oxalate at 10 μM” value in assay [1] was found to be 0.82 ± 0.04.
`O=C(O)c1cc([N+](=O)[O-])c(-c2ccco2)cc1O`: in assay [1], the “Relative oxalate at 10 μM” value amounted to 0.86 ± 0.04.
With `O=C(O)c1ccc(-c2ccc(CO)o2)cc1O`, in assay [1], the “Relative oxalate at 10 μM” value amounted to 0.88 ± 0.01.
Regarding `O=C(O)c1cc(-c2ccc(CO)o2)ccc1O`, the “Relative oxalate at 10 μM” value in assay [1] turned out to be 0.88 ± 0.19.
Regarding `CC(=O)c1ccc(-c2ccc(C(=O)O)c(O)c2)s1`, in assay [1], the “Relative oxalate at 10 μM” value is given as 0.89 ± 0.14.
Same read-out and setting: the same measure for `O=C(O)c1cc(-c2cccs2)ccc1O`: 0.82 ± 0.01; for `O=C(O)c1ccc(-c2cccs2)cc1O`: 0.74 ± 0.16; for `O=C(O)c1ccc(-c2ccncc2)cc1O`: 0.88 ± 0.03.
Regarding `COc1cccc(-c2ccc(C(=O)O)c(O)c2)c1`, the “Relative oxalate at 10 μM” value in assay [1] was 0.83 ± 0.03.
For `O=C(O)c1ccc(-c2ccc(O)cc2)cc1O`, the “Relative oxalate at 10 μM” value in assay [1] was determined as 0.82 ± 0.01.
`O=C(O)c1cc(-c2ccc(F)cc2F)ccc1O`: in assay [1], the “Relative oxalate at 10 μM” value is 0.88 ± 0.08.
Turning to `O=C(O)c1cc(-c2ccc(OCc3ccccc3)cc2)ccc1O`, the “Relative oxalate at 10 μM” value in assay [1] was 0.8 ± 0.16.
The same measure, in the same setting: to `COc1ccc(COc2ccc(-c3ccc(C(=O)O)c(O)c3)cc2)cc1` belongs 0.90 ± 0.16; to `O=C(O)c1ccc(-c2ccccc2COc2cc(F)cc(F)c2)cc1O`, 0.72 ± 0.16.
As for `O=C(O)c1ccc(-c2ccccc2COc2cccc(C(F)(F)F)c2)cc1O`, the “Relative oxalate at 10 μM” value in assay [1] was 0.62 ± 0.29.
For the compound `O=C(O)c1cc(-c2ccccc2COc2cccc(C(F)(F)F)c2)ccc1O`, the “Relative oxalate at 10 μM” value in assay [1] came out at 0.68 ± 0.21.
For the compound `N.O=C(O)c1cc(-c2ccc(CNc3ccc(Br)cc3)o2)ccc1O`, in assay [1], the “Relative oxalate at 10 μM” value stood at 0.373 ± 0.063.
On to `C#CCCCC(=O)Nc1ccc(C(=O)c2ccc(NCc3ccc(-c4ccc(O)c(C(=O)O)c4)o3)cc2)cc1.N`, for which the “Relative oxalate at 10 μM” value in assay [1] was found to be 0.144 ± 0.322.
For the compound `N.O=C(O)c1cc(-c2ccc(CNc3ccc([N+](=O)[O-])cc3)o2)ccc1O`, in assay [1], the “Relative oxalate at 10 μM” value is −0.236 ± 0.115.
Usually EC50 stands for the concentration at which the effect is half-maximal. As for `O=C(O)c1nnsc1Sc1ccc(Cl)cc1` [CCPST, reference compound], the 50% effective concentration (EC50) in assay [1] (24 h after treatment, read-out: EC50 (24 h), reduced production of oxalate) turned out to be 25.3 µM; in assay [1] (48 h after treatment, read-out: EC50 (48 h), reduced production of oxalate), 32.9 µM; in assay [1] (72 h after treatment, read-out: EC50 (72 h), reduced production of oxalate), 33.9 µM. Also, in assay [2], the “effectiveness in reducing oxalate levels” value was “reducing oxalate levels”.
Take `O=C(O)c1ccc(-c2ccco2)cc1O` [Compound 73, 4-(2-furyl)-2-hydroxybenzoic acid]: the EC50 in assay [1] (setting [3]) was found to be 9.35 µM; in assay [1] (setting [4]), 92.2 µM.
On to `O=C(O)c1cc(-c2ccco2)ccc1O` [Compound 74, 5-(2-furyl)-2-hydroxybenzoic acid], for which the EC50 in assay [1] (setting [3]) came to 3.59 µM; in assay [1] (setting [4]), 7.88 µM; in assay [1] (setting [5]) it was 9.2 µM.
Regarding `O=Cc1ccc(-c2ccc(O)c(C(=O)O)c2)o1` [Compound 78, 5-(5-formyl-2-furyl)-2-hydroxybenzoic acid], the EC50 in assay [1] (setting [3]) is 3.45 µM; in assay [1] (setting [4]) it was 8.36 µM; in assay [1] (setting [5]), 11.2 µM.
Turning to `O=C(O)c1ccc(-c2ccco2)cc1O` [drawing 12], in assay [1], the “Relative oxalate at 10 μM” value came to 0.87 ± 0.15.
As for `O=C(O)c1cc(-c2ccco2)ccc1O` [drawing 13], in assay [1], the “Relative oxalate at 10 μM” value is reported as −0.25 ± 0.2.
The same measure, in the same setting: to `O=Cc1ccc(-c2ccc(O)c(C(=O)O)c2)o1` [drawing 17] belongs −0.06 ± 0.29^a.
